Assay results from PMC6984391, “Anion carriers as potential treatments for cystic fibrosis: transport in cystic fibrosis cells, and additivity to channel-targeting drugs” (Chemical Science, 2019).

What was measured:
YFP-FRT cells [1] = experiment: YFP fluorescence plate reader assay of anion transport in YFP-FRT cells; type: cell-based, Fischer rat; settings: for Corrected absolute initial slope |dF/dT|: transporter 50 μM, DMSO 0.5% v/v, DMSO-only subtracted, I^– 100 mM; for anion transport activity in YFP-FRT cells (in words): 50 μM
Procedure: We treated YFP-FRT cells with anionophores (final concentration, 1–50 μM) or the vehicle DMSO (0.1–0.5% v/v) by direct addition to the phosphate-buffered saline (PBS) bathing the cells. After incubating YFP-FRT cells with anionophores for 10 minutes at 37 °C, we evaluated anion transport activity by adding I^– (100 mM), using a PBS iodide solution with Cl^– replaced by I^–, and following cell fluorescence for 14 s. FRT cells are relatively impermeable to anions because they lack key ion channels found in epithelial cells, including CFTR.[33] Thus, in the absence of anionophore, iodide cannot enter YFP-FRT cells and no quenching of fluorescence occurs. By contrast, in the presence of an anionophore, iodide influx occurs leading to fluorescence quenching.[29]
To quantify anion transport by different anionophores, we fitted first order exponential functions to the iodide-induced fluorescence decay to measure the initial slope, averaging values over multiple experiments. Fig. 2b and Table 1 summarise the data. Consistent with our previous results,[29] we observed a wide range of anion transport activity. […] We therefore selected for further study 11, 12, 15 and 19.
FRT cells stably expressing the halide sensor YFP-H148Q/I152L6 were generous gifts of AS Verkman (University of California, San Francisco), while CFBE41o- cells7 stably expressing YFP (YFP-CFBE cells) were a generous gift of LJV Galietta (Telethon Institute for […]
Genetics and Medicine). […]
U ml-1 penicillin and […] streptomycin. All cells were incubated at 37 °C in a humidified atmosphere with 5% CO2. […]
Fluorescence plate reader assay […]
quenching of YFP fluorescence at 37 °C using a microplate reader following the method of Galietta et al..9 The microplate reader (model: FLUORstar Omega; BMG LABTECH Ltd., Aylesbury, UK) was equipped with a syringe pump and excitation (500 ± 10 nm) and emission (535 ± 15 nm) filters (Chroma Technology GmbH, Olching, Germany). After washing cells twice with PBS (composition (mM): 137 NaCl, 2.7 KCl, 8.1 Na2HPO4, 1.5 KH2PO4, 1 CaCl2 and 0.5 MgCl2, pH 7.40), cells were incubated with test anionophores (1 – 50 µM) or the vehicle (DMSO [0.1 – 0.5% v v-1]) in 40 µl of PBS for 10 – 120 minutes according to the experimental design. Other compounds, including forskolin, ivacaftor and channel inhibitors were added to […]
the PBS bathing cells 10 minutes prior to PBS iodide addition, whereas UTP was added to cells with the PBS iodide solution. Fluorescence was measured for 14 seconds; 2 seconds before and 12 seconds after injection of 110 µl PBS iodide solution (137 mM Cl- replaced by I-) into each well (to obtain a final concentration of I- of 100 mM).
We expressed cell fluorescence values (F) relative to the fluorescence value immediately before I- injection (F0), excluding the initial decrease, which likely represents the quenching of extracellular YFP released from cells and signal reduction accompanying the increase in solution volume bathing cells. To quantify anion transport by test anionophores, we determined the initial slope of the fluorescence decay following I - addition by fitting first order exponential functions to the last 12 seconds of each fluorescence recording. In each experim ent, n values represent the mean of two replicates and all treatments were tested at least three times using different microplates. […]
FRT cells was selected and the cells were perfused with (i) PBS for 5 minutes then (ii) PBS containing I- (10 mM) (made by preparing PBS with 127 mM NaCl to maintain osmolarity) for 5 minutes and finally (iii) PBS for 30 minutes to remove thoroughly I- from the perfusion chamber. YFP-FRT cells were repeatedly treated with I- (10 mM) and then washed with PBS […]
During all interventions, the rate of solution perfusion was 8 – 10 ml min-1; temperature was 37 °C and except for the first

YFP-FRT cells [2] = experiment: IncuCyte ZOOM apoptosis (annexin V red) in YFP-FRT cells; type: cell-based; settings: for time from which apoptosis is apparent: 30 and 50 μM, P < 0.05 vs. DMSO; for induction of apoptosis: all concentrations tested, 24 h period
Procedure: To test for the induction of apoptosis by anionophores, we also used the IncuCyte ZOOMTM (Essen Bioscience) live-cell analysis system. YFP-FRT cells were seeded and grown on 96-well plates as described above for cell viability studies. After 48 h, the YFP-FRT culture media was replaced with fresh culture media containing test anionophores or the vehicle (DMSO 0.5% v v-1) and IncuCyte annexin V red reagent (Essen Bioscience) was added following the manufacturer’s instructions before the YFP-FRT cells were transferred to the IncuCyte ZOOMTM. At 2 h intervals over a 24 h period, 4 images of each well on 96-well plates were acquired; the phase contrast images were used to determine the total number of cells per well, while the fluorescence images to identify the number of apoptotic cells labelled red by the IncuCyte annexin V red reagent. In each experiment, one data point is the average value […]
Except for ivacaftor and lumacaftor (Selleck Chemicals; Stratech Scientific Ltd., Newmarket, UK), chemicals were supplied by the Sigma-Aldrich Company Ltd. (now Merck KGaA) (Gillingham, UK). UTP was dissolved in distilled water, forskolin in methanol, while anionophores and channel modulators were prepared in DMSO. Stock solutions were stored at –20 °C except those of anionophores, which were stored at room temperature. Immediately before use, stock solutions were diluted to final concentrations. Precautions against light-sensitive reactions were observed when using anionophores and channel modulators. DMSO […]
Previous work has identified that some anionophores trigger apop totic cell death.18,19,2018,19 Using the IncuCyte ZOOMTM live-cell analysis system and the IncuCyte annexin V red reagent, we assessed whether the anionophores 11, 12, 15 and 19 induce […]
concentrations ≥ 10 µM with the effects of 30 and 50 µM apparent from as early as 2 h (P < […]
concentrations tested over the 24 h period studied (P > 0.05 vs. DMSO 0.5% v v-1) (Fig. S25). […]
the data re-affirm the promising biological activity of anionophore 11.

SMILES	Corrected absolute initial slope |dF/dT| (YFP-FRT cells [1])	anion transport activity in YFP-FRT cells (in words) (YFP-FRT cells [1])	time from which apoptosis is apparent (YFP-FRT cells [2])	induction of apoptosis (YFP-FRT cells [2])
COCCOCCOC(=O)[C@]12CC[C@@H](NC(=O)Nc3ccc(C(F)(F)F)cc3)C[C@@H]1C[C@@H](NC(=O)Nc1ccc(C(F)(F)F)cc1)CC2 [Compound 9]	1.1 ×10^–3 s^–1	–	–	–
COCCOCCOC(=O)[C@]12CC[C@@H](NC(=O)Nc3cc(C(F)(F)F)cc(C(F)(F)F)c3)C[C@@H]1C[C@@H](NC(=O)Nc1cc(C(F)(F)F)cc(C(F)(F)F)c1)CC2 [Compound 10]	0.7 ×10^–3 s^–1	–	–	–
CCOC(=O)[C@]12CC[C@@H](NC(=S)Nc3ccc([N+](=O)[O-])cc3)C[C@@H]1C[C@@H](NC(=S)Nc1ccc([N+](=O)[O-])cc1)CC2 [Compound 12]	17.2 ×10^–3 s^–1	notable decays in fluorescence	≥ 2 h	positive effects
CCCCCCCCOC(=O)[C@]12CC[C@@H](NC(=S)Nc3ccc([N+](=O)[O-])cc3)C[C@@H]1C[C@@H](NC(=S)Nc1ccc([N+](=O)[O-])cc1)CC2 [Compound 13]	3.3 ×10^–3 s^–1	intermediate levels	–	–
CCOC(=O)[C@]12CC[C@@H](NC(=S)Nc3cc(C(F)(F)F)cc(C(F)(F)F)c3)C[C@@H]1C[C@@H](NC(=S)Nc1cc(C(F)(F)F)cc(C(F)(F)F)c1)CC2 [Compound 15]	22.6 ×10^–3 s^–1	notable decays in fluorescence	≥ 2 h	positive effects
FC(F)(F)c1ccc(NC(=S)NCCN(CCNC(=S)Nc2ccc(C(F)(F)F)cc2)CCNC(=S)Nc2ccc(C(F)(F)F)cc2)cc1 [Compound 18]	1.1 ×10^–3 s^–1	–	–	–
FC(F)(F)c1cc(NC(=S)NCCN(CCNC(=S)Nc2cc(C(F)(F)F)cc(C(F)(F)F)c2)CCNC(=S)Nc2cc(C(F)(F)F)cc(C(F)(F)F)c2)cc(C(F)(F)F)c1 [Compound 19]	12.2 ×10^–3 s^–1	notable decays in fluorescence	≥ 2 h	positive effects
